Experiments:
[1] = target: human recombinant histamine H1 receptor (Homo sapiens, UniProt P35367); experiment: Histamine H1 radioligand binding assay ([3H]Pyrilamine); settings: receptor expressed in CHO cells; for inhibition at 1 µM: compound at 1 μM
How it was run: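 Membranes from CHO cells expressing the receptor, in 50 mM Tris-HCl pH 7.4 with 2 mM MgCl2, 100 mM NaCl and 250 mM sucrose, incubated with 1.2 nM [3H]pyrilamine for 180 min at 25° C; nonspecific binding defined with 1 μM pyrilamine.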

[2] = target: T1, human recombinant serotonin (5-Hydroxytryptamine) 5-HT2A receptor (Homo sapiens, UniProt P28223); experiment: Serotonin 5-HT2A radioligand binding assay ([3H]Ketanserin); settings: 0.5 nM [3H]Ketanserin, CHO-K1 cells; for inhibition at 0.1 µM: compound at 0.1 μM, read-out: Percent Inhibition of ligand binding, Serotonin (0.1 μM) 5-HT2A; for inhibition at 1 µM: compound at 1 μM, read-out: Percent Inhibition of ligand binding, Serotonin (1 μM) 5-HT2A
T1 construct: expressed in transfected cells; host or cells: Chinese hamster ovary (CHO-K1) cells
T1 sequence (P28223 whole entry): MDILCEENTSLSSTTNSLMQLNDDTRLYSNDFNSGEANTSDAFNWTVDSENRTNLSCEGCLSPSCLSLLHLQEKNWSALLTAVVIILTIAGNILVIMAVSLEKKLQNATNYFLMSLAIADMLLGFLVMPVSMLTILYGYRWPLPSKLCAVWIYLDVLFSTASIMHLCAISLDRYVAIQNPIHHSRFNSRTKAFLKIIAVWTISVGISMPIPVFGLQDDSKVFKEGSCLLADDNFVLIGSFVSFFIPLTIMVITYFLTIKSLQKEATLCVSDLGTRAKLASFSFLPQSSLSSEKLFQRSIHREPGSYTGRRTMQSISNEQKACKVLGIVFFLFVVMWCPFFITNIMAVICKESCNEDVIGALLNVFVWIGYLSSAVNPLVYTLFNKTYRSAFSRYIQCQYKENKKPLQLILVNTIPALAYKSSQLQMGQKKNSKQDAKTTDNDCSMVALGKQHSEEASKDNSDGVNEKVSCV
Protocol: Compounds of the invention were incubated with 0.5 nM [^3H]Ketanserin for 60 min at 25° C. Non-specific binding was estimated in the presence of 1 μM Mianserin. Receptor proteins were filtered and washed, the filters were then counted to determine [^3H]Ketanserin specifically bound. Compounds were screened at 1 μM or lower, using 1% DMSO as vehicle. Biochemical assay results are presented as the percent inhibition of specific binding in Table 4.

[3] = target: T2, human recombinant serotonin (5-Hydroxytryptamine) 5-HT6 receptor (Homo sapiens, UniProt P50406); experiment: Serotonin 5-HT6 radioligand binding assay ([3H]LSD); settings: HeLa cells; for inhibition at 0.1 µM: compound at 0.1 μM, read-out: Percent Inhibition of ligand binding, Serotonin (0.1 μM) 5-HT6; for inhibition at 1 µM: compound at 1 μM, read-out: Percent Inhibition of ligand binding, Serotonin (1 μM) 5-HT6
T2 construct: expressed in transfected cells; host or cells: human HeLa cells
T2 sequence (P50406 whole entry): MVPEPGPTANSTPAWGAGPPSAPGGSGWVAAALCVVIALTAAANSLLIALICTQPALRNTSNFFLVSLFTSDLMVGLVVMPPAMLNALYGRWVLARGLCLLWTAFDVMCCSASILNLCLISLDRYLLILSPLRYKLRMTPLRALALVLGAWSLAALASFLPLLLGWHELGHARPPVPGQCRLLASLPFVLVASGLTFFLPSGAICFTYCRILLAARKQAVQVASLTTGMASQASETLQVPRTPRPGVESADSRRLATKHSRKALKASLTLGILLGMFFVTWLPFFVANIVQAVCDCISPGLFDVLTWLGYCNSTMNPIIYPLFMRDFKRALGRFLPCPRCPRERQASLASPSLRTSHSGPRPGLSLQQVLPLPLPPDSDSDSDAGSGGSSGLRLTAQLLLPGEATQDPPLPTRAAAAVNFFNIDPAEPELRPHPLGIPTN
Protocol: (§1) Compounds of the invention were incubated with 1.5 nM [3H]Lysergic acid diethylamide (LSD) for 120 min at 37° C. […] Receptor proteins were filtered and washed, the filters were then counted to determine [3H]LSD specifically bound. Compounds were screened at 1 μM or lower, using 1% DMSO as vehicle. Biochemical assay results are presented as the percent inhibition of specific binding in Table 4.

[4] = target: human recombinant serotonin (5-Hydroxytryptamine) 5-HT7 receptor (Homo sapiens, UniProt P34969); experiment: Serotonin 5-HT7 radioligand binding assay ([3H]LSD); settings: compound at 0.1 μM; 5.5 nM [3H]LSD; CHO cells; read-out: Percent Inhibition of ligand binding, Serotonin (0.1 μM) 5-HT7
human recombinant serotonin (5-Hydroxytryptamine) 5-HT7 receptor, sequence (P34969 whole entry): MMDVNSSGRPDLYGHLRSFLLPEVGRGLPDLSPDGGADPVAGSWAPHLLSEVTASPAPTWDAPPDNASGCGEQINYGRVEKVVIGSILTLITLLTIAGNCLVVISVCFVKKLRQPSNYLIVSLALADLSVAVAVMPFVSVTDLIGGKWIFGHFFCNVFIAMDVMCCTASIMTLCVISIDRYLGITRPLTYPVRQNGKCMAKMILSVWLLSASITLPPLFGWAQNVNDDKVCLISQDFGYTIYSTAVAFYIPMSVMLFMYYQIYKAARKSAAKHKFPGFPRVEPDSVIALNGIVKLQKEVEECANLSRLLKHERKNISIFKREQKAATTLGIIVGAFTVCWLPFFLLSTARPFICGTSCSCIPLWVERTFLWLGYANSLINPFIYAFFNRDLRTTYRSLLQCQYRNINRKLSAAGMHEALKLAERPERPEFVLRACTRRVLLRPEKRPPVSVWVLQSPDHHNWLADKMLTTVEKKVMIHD
Protocol: as §1, with “of” for “of the”, “5.5” for “1.5”, “[^3H] Lysergic” for “[3H]Lysergic”, “2 h” for “120 min”, “25°” for “37°”, “[^3H]LSD” for “[3H]LSD”

[5] = target: T3, human recombinant adrenergic α2A receptor (Homo sapiens, UniProt P08913); experiment: Adrenergic α2A radioligand binding assay ([3H]MK-912); settings: 1 nM [3H]MK-912, insect Sf9 cells; for inhibition at 0.1 µM: compound at 0.1 μM, read-out: Percent Inhibition of ligand binding, Adrenergic (0.1 μM) a2A; for inhibition at 1 µM: compound at 1 μM, read-out: Percent Inhibition of ligand binding, Adrenergic (1 μM) a2A
T3 construct: expressed in transfected cells; host or cells: insect Sf9 cells
T3 sequence (P08913 1-465): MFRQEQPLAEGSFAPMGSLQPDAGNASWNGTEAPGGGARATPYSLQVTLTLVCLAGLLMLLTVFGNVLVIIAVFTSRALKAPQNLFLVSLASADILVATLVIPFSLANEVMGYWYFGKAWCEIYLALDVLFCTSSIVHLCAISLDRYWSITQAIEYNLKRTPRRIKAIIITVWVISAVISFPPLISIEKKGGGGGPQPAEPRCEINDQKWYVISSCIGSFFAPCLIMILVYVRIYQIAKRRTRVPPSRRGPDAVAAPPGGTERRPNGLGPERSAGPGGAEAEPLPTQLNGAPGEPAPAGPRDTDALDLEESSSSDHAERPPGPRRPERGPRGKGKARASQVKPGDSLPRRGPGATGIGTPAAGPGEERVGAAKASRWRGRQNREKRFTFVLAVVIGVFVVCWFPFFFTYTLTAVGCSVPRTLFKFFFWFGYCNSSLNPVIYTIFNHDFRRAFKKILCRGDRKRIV
Protocol: To evaluate in radioligand binding assays the activity of compounds of the invention, human recombinant adrenergic α2A receptor expressed in insect Sf9 cells (Uhlen S et al. J. Pharmacol. Exp. Ther. 271:1558, 1994) in a modified Tris-HCl buffer (50 mM Tris-HCl, pH 7.4, 12.5 mM MgCl2, 2 mM EDTA) was used. Compounds of invention were incubated with 1 nM [^3H]MK-912 for 60 min at 25° C. MK912 is (2S-trans)-1,3,4,5′,6,6′,7,12b-octahydro-1′,3′-dimethyl-spiro[2H-benzofuro[2,3-a]quinolizine-2,4′(1′H)-pyrimidin]-2′(3′H)-one hydrochloride Non-specific binding was estimated in the presence of 10 μM WB-4101 (2-(2,6-dimethoxyphenoxyethyl)aminomethyl-1,4-benzodioxane hydrochloride). Receptor proteins were filtered and washed, the filters were then counted to determine [^3H]MK-912 specifically bound.

human recombinant histamine H1 receptor, sequence (P35367 whole entry): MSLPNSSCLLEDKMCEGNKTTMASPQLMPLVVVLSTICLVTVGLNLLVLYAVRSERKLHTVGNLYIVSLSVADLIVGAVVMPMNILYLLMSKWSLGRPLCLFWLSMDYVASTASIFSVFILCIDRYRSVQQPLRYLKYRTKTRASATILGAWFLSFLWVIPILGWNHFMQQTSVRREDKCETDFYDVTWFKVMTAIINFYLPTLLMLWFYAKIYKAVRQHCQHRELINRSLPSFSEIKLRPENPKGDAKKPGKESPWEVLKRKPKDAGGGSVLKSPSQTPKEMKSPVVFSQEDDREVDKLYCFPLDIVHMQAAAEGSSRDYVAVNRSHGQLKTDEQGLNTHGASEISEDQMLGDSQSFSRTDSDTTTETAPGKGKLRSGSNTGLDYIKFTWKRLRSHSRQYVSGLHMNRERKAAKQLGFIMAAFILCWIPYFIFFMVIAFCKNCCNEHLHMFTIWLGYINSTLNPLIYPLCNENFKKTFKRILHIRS

Row | SMILES | inhibition at 0.1 µM ([1]; compound at 0.1 μM) [%] | inhibition at 0.1 µM [2] [%] | inhibition at 0.1 µM [3] [%] | inhibition at 0.1 µM [4] [%] | inhibition at 0.1 µM [5] [%] | inhibition at 1 µM [2] [%] | inhibition at 1 µM [1] [%] | inhibition at 1 µM [5] [%] | inhibition at 1 µM [3] [%]
1 | CCCC[C@@](O)(Cn1c2c(c3cc(Cl)ccc31)CN(C)CC2)c1ccc(F)cc1 [Compound 1-67, (S)-1-(8-chloro-2-methyl-3,4-dihydro-1H-pyrido[4,3-b]indol-5(2H)-yl)-2-(4-fluorophenyl)hexan-2-ol] | -2 | 39 | 25 | -8 |  |  |  |  | 
2 | Cc1ccc2c(c1)c1c(n2CC(O)c2ccncc2)CCN(C)C1 (centres unmarked) [Compound 1-8, 2-(2,8-dimethyl-3,4-dihydro-1H-pyrido[4,3-b]indol-5(2H)-yl)-1-(pyridin-4-yl)ethanol] |  |  |  |  | 37 | 86 |  |  | 
3 | Cc1ccc2c(c1)c1c(n2CCc2ccc(C)nc2)CCN(CCC#N)C1 [Compound 1-34, 3-(8-methyl-5-(2-(6-methylpyridin-3-yl)ethyl)-3,4-dihydro-1H-pyrido[4,3-b]indol-2(5H)-yl)propanenitrile] |  |  |  |  |  | 0 | 65 | 3 | 6
4 | CN1CCc2c(c3cc(Cl)ccc3n2CC(=O)c2ccccc2)C1 [Compound 1-36, 2-(8-chloro-2-methyl-3,4-dihydro-1H-pyrido[4,3-b]indol-5(2H)-yl)-1-phenylethanone] |  |  |  |  |  | 98 | 84 | 43 | 71
5 | Cc1ccc2c(c1)c1c(n2CC(C)(C)c2ccncc2)CCN(C)C1 [Compound 1-49, 2,8-dimethyl-5-(2-methyl-2-(pyridin-4-yl)propyl)-2,3,4,5-tetrahydro-1H-pyrido[4,3-b]indole] |  | 78 | 38 | 95 |  |  | 94 |  | 
6 | Cc1ccc2c(c1)c1c(n2CCc2ccc(CCCN)nc2)CCN(C)C1 [Compound 1-40, 3-(5-(2-(2,8-dimethyl-3,4-dihydro-1H-pyrido[4,3-b]indol-5(2H)-yl)ethyl)pyridin-2-yl)propan-1-amine] |  |  |  |  |  | 78 | 81 | 31 | 24
7 | CN1CCc2c(c3cc(Cl)c(Cl)cc3n2CC(C)(O)c2ccncc2)C1 (centres unmarked) [Compound 1-17, 1-(7,8-dichloro-2-methyl-3,4-dihydro-1H-pyrido[4,3-b]indol-5(2H)-yl)-2-(pyridin-4-yl)propan-2-ol] |  |  |  |  | 64 | 96 |  |  | 
8 | COc1ccc([C@](C)(O)Cn2c3c(c4cc(C)ccc42)CN(C)CC3)cc1 [Compound 1-20, (S)-1-(2,8-Dimethyl-3,4-dihydro-1H-pyrido[4,3-b]indol-5(2H)-yl)-2-(4-methoxyphenyl)propan-2-ol] |  | 91 |  |  | 57 |  |  |  | 
9 | Cc1ccc2c(c1)c1c(n2CC(=O)c2ccccc2)CCN(C)C1 [Compound 1-35, 2-(2,8-dimethyl-3,4-dihydro-1H-pyrido[4,3-b]indol-5(2H)-yl)-1-phenylethanone] |  |  |  |  |  | 90 | 52 | 19 | 14
10 | Cc1ccc2c(c1)c1c(n2CC(C)c2ccncc2)CCN(C)C1 (centres unmarked) [Compound 1-46, 2,8-dimethyl-5-(2-(pyridin-4-yl)propyl)-2,3,4,5-tetrahydro-1H-pyrido[4,3-b]indole] |  | 71 | 45 | 93 |  |  | 90 |  | 
11 | CN1CCc2c(c3cc(Cl)ccc3n2CC(O)c2ccncc2)C1 (centres unmarked) [Compound 1-11, 2-(8-chloro-2-methyl-3,4-dihydro-1H-pyrido[4,3-b]indol-5(2H)-yl)-1-(pyridin-4-yl)ethanol] |  |  |  |  | 41 | 82 |  |  | 
12 | Cc1ccc2c(c1)c1c(n2CC(C)(O)c2ccc(O)cc2)CCN(C)C1 (centres unmarked) [Compound 1-15, 4-(1-(2,8-dimethyl-3,4-dihydro-1H-pyrido[4,3-b]indol-5(2H)-yl)-2-hydroxypropan-2-yl)phenol] |  |  |  |  | 32 | 102 |  |  | 
